Data published in patent US20260206755A1, “COMPOUNDS AND COMPOSITIONS HAVING KNOCK-DOWN OR BLOOD FEED INHIBITION ACTIVITY AGAINST INSECT PESTS” (priority 2017, published 2026).
Where two headings read alike, the source gives them in different places.

System: Anopheles stephensi
Assay: Anopheles stephensi treated well plate contact test: knockdown and mortality
Assay type: in vivo
Method: Examples Anopheles stephensi (Indian Malaria Mosquito)
The individual wells of twelve (12) well tissue culture plates were treated with 200 μl of an ethanol solution containing a test compound of Table 1 or Table 2 at a defined concentration and repeated with also 200 μl of an ethanol solution containing in addition 2 ppm TFNA-AM. Once the deposits were dry, five non-blood fed adult female Anopheles stephensi (between two to five day old) were added to each well, and sustained with a 10% sucrose solution in a cotton wool plug. Assessment of the knockdown after 1 hour, and mortality after 24 and 48 hours was carried out.
In case of multiple tests, the mean value is reported.

[1] = test compound 0.2 ppm plus 2 ppm TFNA-AM, after 24 hours
[2] = test compound 0.2 ppm plus 2 ppm TFNA-AM, after 48 hours
[3] = test compound 0.2 ppm plus 2 ppm TFNA-AM, knockdown after 1 hour
[4] = test compound 0.2 ppm, without TFNA-AM, after 24 hours
[5] = test compound 0.2 ppm, without TFNA-AM, after 48 hours
[6] = test compound 0.2 ppm, without TFNA-AM, knockdown after 1 hour
[7] = test compound 2 ppm plus 2 ppm TFNA-AM, after 24 hours
[8] = test compound 2 ppm plus 2 ppm TFNA-AM, after 48 hours
[9] = test compound 2 ppm plus 2 ppm TFNA-AM, knockdown after 1 hour
[10] = test compound 2 ppm, without TFNA-AM, after 24 hours
[11] = test compound 2 ppm, without TFNA-AM, after 48 hours
[12] = test compound 2 ppm, without TFNA-AM, knockdown after 1 hour
[13] = test compound 20 ppm plus 2 ppm TFNA-AM, after 24 hours
[14] = test compound 20 ppm plus 2 ppm TFNA-AM, after 48 hours
[15] = test compound 20 ppm plus 2 ppm TFNA-AM, knockdown after 1 hour
[16] = test compound 20 ppm, without TFNA-AM, after 24 hours
[17] = test compound 20 ppm, without TFNA-AM, after 48 hours
[18] = test compound 20 ppm, without TFNA-AM, knockdown after 1 hour
[19] = test compound 0.02 ppm plus 2 ppm TFNA-AM, after 24 hours
[20] = test compound 0.02 ppm plus 2 ppm TFNA-AM, after 48 hours
[21] = test compound 0.02 ppm plus 2 ppm TFNA-AM, knockdown after 1 hour

Structure (SMILES) | mortality % 24, with TFNA-AM [1] [%] | mortality % 48, with TFNA-AM [2] [%] | Knock Down, with TFNA-AM [3] [%] | mortality % 24, without TFNA-AM [4] [%] | mortality % 48, without TFNA-AM [5] [%] | Knock Down, without TFNA-AM [6] [%] | mortality % 24, with TFNA-AM [7] [%] | mortality % 48, with TFNA-AM [8] [%] | Knock Down, with TFNA-AM [9] [%] | mortality % 24, without TFNA-AM [10] [%] | mortality % 48, without TFNA-AM [11] [%] | Knock Down, without TFNA-AM [12] [%] | mortality % 24, with TFNA-AM [13] [%] | mortality % 48, with TFNA-AM [14] [%] | Knock Down, with TFNA-AM [15] [%] | mortality % 24, without TFNA-AM [16] [%] | mortality % 48, without TFNA-AM [17] [%] | Knock Down, without TFNA-AM [18] [%] | mortality % 24, with TFNA-AM [19] [%] | mortality % 48, with TFNA-AM [20] [%] | further results
N#Cc1ccc(CC(=NNC(=O)Nc2ccc(OC(F)(F)F)cc2)c2cccc(C(F)(F)F)c2)cc1 (mixture of isomers) [Metaflumizone] | 40 | 60 | 100 | 0 | 0 | 0 | 100 | 100 | 100 | 0 | 0 | 0 | 100 | 100 | 100 | 0 | 0 | 0 | – | – | mortality % 24, with TFNA-AM (test compound 200 ppm plus 2 ppm TFNA-AM, after 24 hours): 100%; mortality % 48, with TFNA-AM (test compound 200 ppm plus 2 ppm TFNA-AM, after 48 hours): 100%; Knock Down, with TFNA-AM (test compound 200 ppm plus 2 ppm TFNA-AM, knockdown after 1 hour): 100%; mortality % 24, without TFNA-AM (test compound 200 ppm, without TFNA-AM, after 24 hours): 0%; mortality % 48, without TFNA-AM (test compound 200 ppm, without TFNA-AM, after 48 hours): 80%; Knock Down, without TFNA-AM (test compound 200 ppm, without TFNA-AM, knockdown after 1 hour, adult females): 0%
Cc1c(COC(=O)[C@@H]2[C@H](/C=C(\Cl)C(F)(F)F)C2(C)C)cccc1-c1ccccc1 (racemic) [Bifenthrin] | 100 | 100 | 100 | – | – | – | 100 | 100 | 100 | – | – | – | 100 | 100 | 100 | – | – | – | 100 | 100 | mortality at 0.02 ppm (Anopheles stephensi, test compound 0.02 ppm, without TFNA-AM, after 24 hours, read-out: mortality % 24, without TFNA-AM): 20%; mortality at 0.02 ppm (Anopheles stephensi, test compound 0.02 ppm, without TFNA-AM, after 48 hours, read-out: mortality % 48, without TFNA-AM): 60%; pest or weed control at 0.02 ppm (Anopheles stephensi, test compound 0.02 ppm, without TFNA-AM, knockdown after 1 hour, read-out: Knock Down, without TFNA-AM): 20%; mortality at 0.2 ppm (Anopheles stephensi, test compound 0.2 ppm, without TFNA-AM, after 24 hours, read-out: mortality % 24, without TFNA-AM): 100%; mortality at 0.2 ppm (Anopheles stephensi, test compound 0.2 ppm, without TFNA-AM, after 48 hours, read-out: mortality % 48, without TFNA-AM): 100%; pest or weed control at 0.2 ppm (Anopheles stephensi, test compound 0.2 ppm, without TFNA-AM, knockdown after 1 hour, read-out: Knock Down, without TFNA-AM): 20%; mortality at 2 ppm (Anopheles stephensi, test compound 2 ppm, without TFNA-AM, after 24 hours, read-out: mortality % 24, without TFNA-AM): 100%; mortality at 2 ppm (Anopheles stephensi, test compound 2 ppm, without TFNA-AM, after 48 hours, read-out: mortality % 48, without TFNA-AM): 100%; pest or weed control at 2 ppm (Anopheles stephensi, test compound 2 ppm, without TFNA-AM, knockdown after 1 hour, read-out: Knock Down, without TFNA-AM): 100%; mortality at 20 ppm (Anopheles stephensi, test compound 20 ppm, without TFNA-AM, after 24 hours, read-out: mortality % 24, without TFNA-AM): 100%; mortality at 20 ppm (Anopheles stephensi, test compound 20 ppm, without TFNA-AM, after 48 hours, read-out: mortality % 48, without TFNA-AM): 100%; pest or weed control at 20 ppm (Anopheles stephensi, test compound 20 ppm, without TFNA-AM, knockdown after 1 hour, read-out: Knock Down, without TFNA-AM): 100%; Knock Down, with TFNA-AM [21]: 100%
CC(C)=C[C@@H]1[C@@H](C(=O)O[C@H](C#N)c2cccc(Oc3ccccc3)c2)C1(C)C (relative stereo) [d-d, trans cyphenothrin] | 60 | 100 | 100 | 0 | 0 | 0 | 100 | 100 | 100 | 0 | 0 | 0 | 100 | 100 | 100 | 40 | 60 | 0 | 60 | 20 | Knock Down, with TFNA-AM [21]: 100%; mortality % 24, without TFNA-AM (test compound 0.02 ppm, without TFNA-AM, after 24 hours): 0%; mortality % 48, without TFNA-AM (test compound 0.02 ppm, without TFNA-AM, after 48 hours): 0%; Knock Down, without TFNA-AM (test compound 0.02 ppm, without TFNA-AM, knockdown after 1 hour): 0%
